Laboratory results from ChEMBL document CHEMBL3739375, “Identifying farnesoid X receptor agonists by naive Bayesian and recursive partitioning approaches” (Medchemcomm, 2015).

Legend:
[1] = molecular target: T1, Bile acid receptor (Homo sapiens, UniProt Q96RI1); experiment: (§1) Agonist activity at human farnesoid-X-receptor expressed in HEK293T cells co-expressing human RXRalpha assessed as receptor activation after 20 hrs by dual luciferase reporter assay; format: cell-based, HEK-293T
T1 sequence (Q96RI1 whole entry): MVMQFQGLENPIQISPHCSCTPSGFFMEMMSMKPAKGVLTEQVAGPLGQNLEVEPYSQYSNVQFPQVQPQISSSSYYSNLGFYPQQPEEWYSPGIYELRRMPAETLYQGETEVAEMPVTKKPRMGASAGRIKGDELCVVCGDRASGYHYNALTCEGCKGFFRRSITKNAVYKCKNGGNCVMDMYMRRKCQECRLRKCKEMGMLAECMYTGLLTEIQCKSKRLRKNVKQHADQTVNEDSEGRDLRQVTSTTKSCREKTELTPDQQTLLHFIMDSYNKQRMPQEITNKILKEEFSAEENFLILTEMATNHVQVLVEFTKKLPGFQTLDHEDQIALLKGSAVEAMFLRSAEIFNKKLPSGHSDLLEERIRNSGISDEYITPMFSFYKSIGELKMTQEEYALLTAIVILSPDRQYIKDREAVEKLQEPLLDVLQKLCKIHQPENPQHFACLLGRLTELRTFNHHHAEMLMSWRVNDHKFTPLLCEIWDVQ

[2] = molecular target: T2, Bile acid receptor (Homo sapiens) (UniProt Q96RI1); experiment: as §1; format: cell-based; settings: HEK-293T
T2 sequence (whole entry): T1 sequence (Q96RI1 whole entry)

EC50 [1] [µM]	Activity [2]	SMILES
29.9	Dose-dependent effect	CC(C)(C)OC(=O)/N=C(/NCCc1cc(NC(=O)Nc2ccncc2)no1)NC(=O)OC(C)(C)C
15.4	Dose-dependent effect	CC(C)(C)OC(=O)/N=C(\NCCCc1cc(C(=O)NCc2ccncc2)no1)NC(=O)OC(C)(C)C
